Measurements as given in patent US20110015080A1, “Solution-based methods for RNA expression profiling” (MASSACHUSETTS INSTITUTE OF TECHNOLOGY, priority 2005, published 2011).
“And” between values parts separate entries of the source, which are not always exact repeats. Equal entries are not always repeated.

Tested on: HL60 (human promyelocytic leukemia) cells
Assay: LMA-FlexMAP bead-based gene expression signature analysis of total RNA from HL60 cells treated with tretinoin or DMSO (ninety transcripts); as to FlexMap signal, transcript NM 000875 (LUA#55): test concentration or dose not given here
[1] = Experiment 2, HL60 cells, Tretinoin-treated, replicate columns
[2] = Table 6B Experiment 1, tretinoin-treated HL60 samples, one column per replicate

SMILES: CC1=C(/C=C/C(C)=C/C=C/C(C)=C/C(=O)O)C(C)(C)CCC1 [tretinoin, all-trans-retinoic acid]
- FlexMap signal, transcript NM_000698 (LUA#14) [1]: 1787 and 1685 and 64.5 and 1902 and 539 and 1934.5 and 1914.5 and 1773 and 1769 and 1871.5
- FlexMap signal, transcript NM_000875 (LUA#55) [1]: 89 and 104 and 28.5 and 81 and 36 and 79 and 80 and 85 and 90 and 87.5
- FlexMap signal, transcript NM_000962 (LUA#7) [1]: 873 and 822.5 and 65 and 900 and 253 and 845 and 904.5 and 846 (2×) and 930
- FlexMap signal, transcript NM_001974 (LUA#11) [1]: 494 and 340.5 and 30 and 516.5 and 92.5 and 533 and 515 and 493 and 470 and 539
- FlexMap signal, transcript NM_002358 (LUA#53) [1]: 109 (2×) and 94 and 33.5 and 103 (2×) and 39 and 96 and 97 and 119
- FlexMap signal, transcript NM_003825 (LUA#8) [1]: 721 and 689.5 and 102 and 772 and 220 and 800 and 733 and 738 and 727 and 764
- FlexMap signal, transcript NM_004514 (LUA#46) [1]: 399 and 424.5 and 25 and 469 and 99 and 428 and 445 and 422 and 420.5 and 460
- FlexMap signal, transcript NM_004631 (LUA#52) [1]: 399 (2×) and 397 and 38.5 and 391 and 97 and 396 and 399.5 and 401.5 and 424
- FlexMap signal, transcript NM_004782 (LUA#4) [1]: 1036.5 and 932 and 45 and 979.5 and 253 and 1005 and 1030 and 914 and 929 and 1044
- FlexMap signal, transcript NM_005736 (LUA#1) [1]: 384.5 and 298.5 and 36.5 and 390 and 90.5 and 408 and 411 and 385 and 392 and 414.5
- FlexMap signal, transcript NM_006457 (LUA#13) [1]: 131 (2×) and 121 and 43 and 115.5 (2×) and 65 and 118 and 120 and 117
- FlexMap signal, transcript NM_006773 (LUA#47) [1]: 284 and 354.5 and 28 and 270 and 68 and 273 and 283 and 272 and 279 and 305
- FlexMap signal, transcript NM_006948 (LUA#51) [1]: 980 and 887 and 51 and 974 and 248 and 1014 and 1006 and 963.5 and 958.5 and 1024.5
- FlexMap signal, transcript NM_007331 (LUA#50) [1]: 102 and 115 (2×) and 24 and 47 and 95.5 and 96 and 97.5 and 94.5 and 111.5
- FlexMap signal, transcript NM_013402 (LUA#54) [1]: 89 and 83 and 30 and 82 and 46 and 90.5 and 95.5 and 85 and 84.5 and 97
- FlexMap signal, transcript NM_014288 (LUA#48) [1]: 63.5 and 55 and 22 and 52 and 33 and 60 and 57 (3×) and 65
- FlexMap signal, transcript NM_014962 (LUA#5) [1]: 691 and 618 and 39 and 595.5 and 160 and 670.5 and 705 and 677.5 and 678 and 710
- FlexMap signal, transcript NM_016061 (LUA#9) [1]: 450 and 440 and 48 and 458 and 121 and 470.5 and 464 and 468 and 459 and 503.5
- FlexMap signal, transcript NM_017440 (LUA#49) [1]: 91 and 29 and 88 and 42 and 78 and 97 and 87.5 and 84 and 86.5
- FlexMap signal, transcript NM_018217 (LUA#3) [1]: 980 and 922 and 48 and 935 and 258 and 992 and 1053.5 and 947 and 966 and 1022.5
- FlexMap signal, transcript NM_032571 (LUA#15) [1]: 228 (2×) and 244 (2×) and 22.5 and 58.5 and 234 and 208 and 205 and 239
- FlexMap signal, transcript NM_173823 (LUA#6) [1]: 760 and 592 and 36 and 736 and 182.5 and 758 and 734.5 and 658.5 and 681 and 816
- FlexMap signal of transcript NM_014288 (LUA#48) (Experiment 3, tretinoin-treated samples, one column per sample): 45 and 48 and 30 and 25 and 30.5 and 39 and 43 and 33
- NM_000070 (FlexMap ID LUA#2) signal [2]: 329.5 and 386 and 269.5 and 370 and 104.5 and 354 and 372 and 159 and 336 and 318
- NM_000153 (FlexMap ID LUA#10) signal [2]: 357.5 and 432 and 324 and 419.5 and 120 and 384 and 408 and 170 and 374 and 377.5
- NM_000632 (FlexMap ID LUA#12) signal [2]: 323.5 and 222 and 292 and 78 and 307 and 277 and 114 and 275.5 and 251
- NM_000698 (FlexMap ID LUA#14) signal [2]: 1562 and 1779 and 1332.5 and 1743 and 503 and 1688 and 1686.5 and 787 and 1606 and 1552.5
- NM_000875 (FlexMap ID LUA#55) signal [2]: 63 and 68 and 53 and 62 (2×) and 36 and 65 and 48 and 74 and 54
- NM_000962 (FlexMap ID LUA#7) signal [2]: 754 and 894 and 663 and 823 and 294 and 793.5 and 807 and 398 and 772 and 764
- NM_001974 (FlexMap ID LUA#11) signal [2]: 403 and 466 and 288 and 435.5 and 95 and 414 and 430 and 141 and 420.5 and 396
- NM_002358 (FlexMap ID LUA#53) signal [2]: 99 (2×) and 113 and 72 and 98 (2×) and 53 and 96 and 58 and 85
- NM_003825 (FlexMap ID LUA#8) signal [2]: 557 and 658 and 476.5 and 630.5 and 256 and 580 and 609 and 318 and 584 and 550
- NM_004514 (FlexMap ID LUA#46) signal [2]: 312.5 and 356 and 262 and 320 and 96 and 306 and 313 and 144.5 and 302 and 286
- NM_004631 (FlexMap ID LUA#52) signal [2]: 304 and 352 and 238 and 334 and 103 and 331 and 310.5 and 135.5 and 326 and 289.5
- NM_004782 (FlexMap ID LUA#4) signal [2]: 790.5 and 907 and 635 and 855 (2×) and 232 and 870 and 812.5 and 341 and 750
- NM_005736 (FlexMap ID LUA#1) signal [2]: 308 and 336 and 319 and 351 and 89 and 329 and 319.5 and 138.5 and 309 and 279
- NM_006457 (FlexMap ID LUA#13) signal [2]: 144 and 135 (2×) and 113 and 78 and 123 and 136 and 90 and 151.5 and 132
- NM_006773 (FlexMap ID LUA#47) signal [2]: 213 (2×) and 257 and 139 and 56.5 and 216 and 219 and 79.5 and 235 and 174
- NM_006948 (FlexMap ID LUA#51) signal [2]: 742 and 840.5 and 592.5 and 791.5 and 224 and 773.5 and 795 and 325 and 762 and 716.5
- NM_007331 (FlexMap ID LUA#50) signal [2]: 85.5 and 97 and 70 and 81 and 42 and 96 and 87 and 53 and 91 and 80
- NM_013402 (FlexMap ID LUA#54) signal [2]: 72 (2×) and 71 and 62 and 75 (2×) and 43 and 75.5 and 48.5 and 71.5
- NM_014288 (FlexMap ID LUA#48) signal [2]: 64 and 62 and 55 and 61 and 45 and 60 (2×) and 56 and 41.5 and 59
- NM_014962 (FlexMap ID LUA#5) signal [2]: 537 and 575.5 and 414.5 and 556 and 171.5 and 552.5 and 567 and 232 and 576.5 and 516.5
- NM_016061 (FlexMap ID LUA#9) signal [2]: 362.5 and 422 and 297 and 401 and 128 and 385 and 382 and 173 and 357.5 and 357
- NM_017440 (FlexMap ID LUA#49) signal [2]: 59 and 66 and 55 and 68 (2×) and 40 and 67 and 48.5 and 66.5 and 62
- NM_018217 (FlexMap ID LUA#3) signal [2]: 747 and 886 and 659.5 and 824 and 225.5 and 823 and 800 and 343 and 785 and 727
- NM_032571 (FlexMap ID LUA#15) signal [2]: 144 and 188 and 125 and 161 and 60 and 169 and 164.5 and 81 and 172.5 and 146
- NM_173823 (FlexMap ID LUA#6) signal [2]: 591.5 and 718 and 482.5 and 654 and 186.5 and 675 and 646 and 291 and 604.5 and 573
